Results taken from US20050192279A1, “Pyridazinones as antagonists of alpha4 integrins” (priority 2004, published 2005).
pIC50: −log10 of the molar value.

Assays:
human α4β7 integrin = target: T1, human α4β7 integrin (Homo sapiens, UniProt P13612+P26010); experiment: α4β7-K562 Cell Adhesion Assay (α4β7 Mediated Adhesion/MAdCAM-1); type: cell-based; conditions: α4β7-K562 cell adhesion to hMAdCAM-1; read-out: α4β7 IC50
T1 construct: expressed in transfected cells; host or cells: K562 cells, stably transfected
T1 sequence (P13612 34-1032): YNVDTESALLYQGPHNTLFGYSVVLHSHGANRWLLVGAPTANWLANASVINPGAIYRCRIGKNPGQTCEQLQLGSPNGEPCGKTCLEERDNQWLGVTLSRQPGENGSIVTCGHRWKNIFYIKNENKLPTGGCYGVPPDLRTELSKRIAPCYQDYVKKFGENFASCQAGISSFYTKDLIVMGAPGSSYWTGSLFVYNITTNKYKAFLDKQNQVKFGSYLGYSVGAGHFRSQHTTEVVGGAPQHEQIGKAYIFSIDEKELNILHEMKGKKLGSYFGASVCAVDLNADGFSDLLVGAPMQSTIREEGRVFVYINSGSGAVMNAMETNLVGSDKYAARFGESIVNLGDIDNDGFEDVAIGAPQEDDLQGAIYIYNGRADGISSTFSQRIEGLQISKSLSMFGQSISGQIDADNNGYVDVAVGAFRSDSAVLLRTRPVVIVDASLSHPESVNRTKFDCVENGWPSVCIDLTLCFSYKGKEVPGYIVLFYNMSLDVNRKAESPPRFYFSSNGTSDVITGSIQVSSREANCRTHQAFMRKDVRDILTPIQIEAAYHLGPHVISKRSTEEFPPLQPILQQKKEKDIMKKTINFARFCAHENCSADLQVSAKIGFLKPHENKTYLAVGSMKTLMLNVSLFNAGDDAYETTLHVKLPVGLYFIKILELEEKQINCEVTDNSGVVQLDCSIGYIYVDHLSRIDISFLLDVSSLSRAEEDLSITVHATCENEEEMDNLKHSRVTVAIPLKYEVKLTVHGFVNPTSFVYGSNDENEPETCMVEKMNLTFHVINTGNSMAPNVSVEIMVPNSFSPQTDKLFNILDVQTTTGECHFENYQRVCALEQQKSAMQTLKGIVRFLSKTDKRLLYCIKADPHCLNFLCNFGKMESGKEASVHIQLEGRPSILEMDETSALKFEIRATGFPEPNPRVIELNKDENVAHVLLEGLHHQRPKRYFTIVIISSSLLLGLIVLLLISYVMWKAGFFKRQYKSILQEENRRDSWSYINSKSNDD
T1 sequence (P26010 20-798): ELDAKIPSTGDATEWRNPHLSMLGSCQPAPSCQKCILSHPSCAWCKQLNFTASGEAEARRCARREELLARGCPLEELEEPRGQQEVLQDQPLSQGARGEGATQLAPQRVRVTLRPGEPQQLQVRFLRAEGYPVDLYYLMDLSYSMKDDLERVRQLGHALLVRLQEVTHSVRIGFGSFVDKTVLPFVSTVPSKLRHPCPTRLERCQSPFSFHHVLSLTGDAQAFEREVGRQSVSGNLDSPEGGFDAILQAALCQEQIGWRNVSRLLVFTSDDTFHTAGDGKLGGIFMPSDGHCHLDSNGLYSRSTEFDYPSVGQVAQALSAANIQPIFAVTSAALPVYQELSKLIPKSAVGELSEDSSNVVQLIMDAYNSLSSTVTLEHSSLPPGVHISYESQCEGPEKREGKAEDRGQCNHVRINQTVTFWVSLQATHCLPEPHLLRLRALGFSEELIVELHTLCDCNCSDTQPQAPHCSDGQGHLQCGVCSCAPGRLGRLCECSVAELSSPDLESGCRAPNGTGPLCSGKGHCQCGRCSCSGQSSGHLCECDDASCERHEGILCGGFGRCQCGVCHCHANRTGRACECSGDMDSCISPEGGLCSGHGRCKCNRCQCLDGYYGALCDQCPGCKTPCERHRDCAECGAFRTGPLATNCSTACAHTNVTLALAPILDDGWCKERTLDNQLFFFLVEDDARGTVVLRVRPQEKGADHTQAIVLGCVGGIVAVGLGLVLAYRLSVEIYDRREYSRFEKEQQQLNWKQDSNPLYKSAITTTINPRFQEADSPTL
How it was run: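 Anti-FLAG plates coated 1 h at 4° C with FLAG-hMAdCAM-1 in PBS pH 7.4, 1% BSA, 1 mM Mn2+. Stably transfected K562 cells expressing human α4β7, labelled with CFDA-SE, adhered with compound 1 h at room temperature. After four washes, bound cells lysed in 0.1 M NaOH for fluorescence read-out.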

α4β1 = target: T2, α4β1 (Homo sapiens, UniProt P05556+P13612); experiment: Ramos Cell Adhesion Assay (α4β1 Mediated Adhesion/VCAM-1); type: cell-based; conditions: Ramos cell adhesion to hVCAM-1; read-out: α4β1 IC50
T2 construct: Ramos Cell Adhesion Assay (α4β1 Mediated Adhesion/VCAM-1); endogenous in cells; host or cells: Ramos cells
T2 sequence (P05556 21-798, one chain of several): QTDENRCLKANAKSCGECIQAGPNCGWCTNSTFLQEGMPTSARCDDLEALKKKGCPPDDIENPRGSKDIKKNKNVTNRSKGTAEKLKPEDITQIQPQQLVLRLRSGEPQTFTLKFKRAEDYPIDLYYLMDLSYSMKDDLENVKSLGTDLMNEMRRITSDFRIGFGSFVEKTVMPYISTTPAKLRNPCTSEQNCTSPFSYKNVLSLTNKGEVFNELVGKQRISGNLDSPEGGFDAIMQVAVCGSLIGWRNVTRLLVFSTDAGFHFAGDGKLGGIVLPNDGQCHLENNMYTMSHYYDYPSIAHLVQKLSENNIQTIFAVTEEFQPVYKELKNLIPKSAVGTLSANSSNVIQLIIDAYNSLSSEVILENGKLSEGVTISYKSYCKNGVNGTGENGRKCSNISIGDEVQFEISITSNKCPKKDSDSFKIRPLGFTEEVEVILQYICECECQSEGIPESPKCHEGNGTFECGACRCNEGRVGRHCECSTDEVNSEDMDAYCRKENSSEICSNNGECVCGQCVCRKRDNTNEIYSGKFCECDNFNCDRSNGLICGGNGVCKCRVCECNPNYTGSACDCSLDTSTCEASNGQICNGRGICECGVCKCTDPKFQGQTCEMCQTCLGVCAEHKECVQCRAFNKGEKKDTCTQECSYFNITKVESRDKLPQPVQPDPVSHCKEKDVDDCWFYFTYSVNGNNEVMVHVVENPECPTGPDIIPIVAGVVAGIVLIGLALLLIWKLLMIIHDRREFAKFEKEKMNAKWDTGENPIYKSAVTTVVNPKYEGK
How it was run: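 Plates coated overnight at 4° C with recombinant hVCAM-1 at 4.0 μg/mL, pH 9.0, then blocked in PBS/1% BSA. Calcein AM-labeled Ramos cells added with compounds and left to adhere 1 h at room temperature; after washing, cells lysed in 1 M Tris pH 8.0/1% SDS.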

pIC50 (human α4β7 integrin) | pIC50 (α4β1) | Compound
8.70 | 6.90 | COc1cnn(CCO)c(=O)c1-c1ccc(C[C@H](NC(=O)c2c(Cl)cccc2Cl)C(=O)O)cc1 [Cpd 15, (S)-2-(2,6-Dichloro-benzoylamino)-3{4-[2-(2-hydroxy-ethyl)-5-methoxy-3-oxo-2,3-dihydro-pyridazin-4-yl]-phenyl}-propionic acid]
8.52 | < 6.00 | CNc1cnn(CC(C)=O)c(=O)c1-c1ccc(C[C@H](NC(=O)c2c(Cl)cccc2Cl)C(=O)O)cc1 [Cpd 18]
9.00 | 6.51 | COc1cnn(CC(N)=O)c(=O)c1-c1ccc(C[C@H](NC(=O)c2c(Cl)cccc2Cl)C(=O)O)cc1 [Cpd 5]
5.86 | < 5.30 | COc1cnn(CCO)c(=O)c1-c1ccc(C[C@H](NC(=O)c2c(Cl)cccc2Cl)C(=O)OCCO)cc1 [Cpd 199]
8.22 | 6.55 | O=C(N[C@@H](Cc1ccc(-c2c(OCc3cccnc3)cnn(CCO)c2=O)cc1)C(=O)O)c1c(Cl)cccc1Cl [Cpd 30]
5.57 | < 5.30 | COc1cnn(C)c(=O)c1-c1ccc(C[C@H](NC(=O)c2c(Cl)cccc2Cl)C(=O)OCC(C)(C)C)cc1 [Cpd 207]
6.95 |  | COc1cnn(CCO)c(=O)c1-c1ccc(C[C@H](NC(=O)OC(C)(C)C)C(=O)O)cc1 [Cpd 120]
7.89 | 6.43 | Cn1ncc(N)c(-c2ccc(C[C@H](NC(=O)c3c(Cl)cccc3Cl)C(=O)O)cc2)c1=O [Cpd 46]
8.70 | 6.44 | COc1cnn(CCN2CCOCC2)c(=O)c1-c1ccc(C[C@H](NC(=O)c2c(Cl)cccc2Cl)C(=O)O)cc1 [Cpd 10]
8.70 | 6.07 | COc1cnn(CC(=O)O)c(=O)c1-c1ccc(C[C@H](NC(=O)c2c(Cl)cccc2Cl)C(=O)O)cc1 [Cpd 11]
7.33 | 7.40 | COc1cnn(C)c(=O)c1-c1ccc(C[C@H](NC(=O)[C@@H]2C3CCC(CC3)N2C(=O)CCc2ccccc2)C(=O)O)cc1 [Cpd 89, 3-[4-(5-Methoxy-2-methyl-3-oxo-2,3-dihydro-pyridazin-4-yl)-phenyl]-2(S)-{[2-(3-phenyl-propionyl)-2-aza-bicyclo[2.2.2]octane-3(S)-carbonyl]-amino}-propionic acid]
6.56 | < 5.30 | COC(=O)[C@H](Cc1ccc(-c2c(OC)cnn(C)c2=O)cc1)NC(=O)c1c(Cl)cccc1Cl [Cpd 151]
7.70 | 6.66 | O=C(N[C@@H](Cc1ccc(-c2c(N3CCOCC3)cnn(CCO)c2=O)cc1)C(=O)O)c1c(Cl)cccc1Cl [Cpd 61]
8.10 | 6.47 | O=C(N[C@@H](Cc1ccc(-c2c(OCC3CC3)cnn(CCO)c2=O)cc1)C(=O)O)c1c(Cl)cccc1Cl [Cpd 35]
< 5.30 | < 5.30 | Cn1ncc(N)c(-c2ccc(C[C@H](NC(=O)c3c(Cl)cccc3Cl)C(=O)OCCO)cc2)c1=O [Cpd 232]
